The source of these data is patent publication US11773078B2, “Furin inhibitors” (Glaxosmithkline Intellectual Property Development Limited, priority 2018, dated 2023).

Experiment [1] concerns the target T1, Furin (108-574-Tev-Flag-His) enzyme (Homo sapiens, UniProt P09958).
T1 construct: Furin (108-574-Tev-Flag-His) enzyme was expressed and purified from CHO cells; TEV cleavage site (C); FLAG (C); His (C); made in house; host or cells: CHO cells
Put plainly: Furin enzyme assay. It counts as biochemical. To be noted: for IC50: read-out: furin enzyme pIC50 (converted). Summed up:
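Compounds ran as 11-point threefold dilutions (0.00017–10 μM final) against 40 pM furin, purified from CHO cells, for 2 h at room temperature. Buffer: 100 mM HEPES pH7.5 with 1 mM CaCl2 and 0.005% Triton X-100. Envision readout. Four-parameter curve gives pXC50.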

The target in experiment [2] is T2, furin (endogenous protease) in U20S cells (Homo sapiens, UniProt P09958).
T2 construct: the endogenous protease cleaves GFP; endogenous in cells; host or cells: U2OS cells transduced with a BacMam reporter
T2 sequence (P09958 108-794): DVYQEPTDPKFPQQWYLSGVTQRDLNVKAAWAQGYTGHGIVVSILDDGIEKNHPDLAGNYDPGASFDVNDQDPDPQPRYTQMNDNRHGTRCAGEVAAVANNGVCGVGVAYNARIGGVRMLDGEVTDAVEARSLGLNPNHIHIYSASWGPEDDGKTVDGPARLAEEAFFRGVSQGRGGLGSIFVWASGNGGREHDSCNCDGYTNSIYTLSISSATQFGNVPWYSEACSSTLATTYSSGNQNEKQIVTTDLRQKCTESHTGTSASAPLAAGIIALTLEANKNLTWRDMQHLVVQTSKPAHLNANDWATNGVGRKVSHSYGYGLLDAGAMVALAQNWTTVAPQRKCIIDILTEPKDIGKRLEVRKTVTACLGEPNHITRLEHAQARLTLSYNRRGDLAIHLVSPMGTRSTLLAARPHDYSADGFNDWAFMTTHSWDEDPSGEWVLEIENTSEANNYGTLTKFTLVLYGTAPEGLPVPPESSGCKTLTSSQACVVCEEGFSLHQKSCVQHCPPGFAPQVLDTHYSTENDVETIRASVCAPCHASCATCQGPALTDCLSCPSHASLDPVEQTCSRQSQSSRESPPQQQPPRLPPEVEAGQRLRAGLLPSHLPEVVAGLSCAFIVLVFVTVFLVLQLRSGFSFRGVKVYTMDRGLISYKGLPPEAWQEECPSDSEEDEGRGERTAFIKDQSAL
As to the kind of experiment: Furin cell-based assay (image-based, Golgi-targeted GFP with BMP10 furin/PCSK cleavage site).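 Further: Read-out is mean GFP fluorescence of Golgi puncta per cell by high-content imaging, retained when furin inhibited, over an eleven-point 0.00017–10 µM series, four-parameter fit.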 The note with it: 24-hour incubation, read-out: furin golgi cell pXC50 (converted).

T1 sequence (P09958 108-574): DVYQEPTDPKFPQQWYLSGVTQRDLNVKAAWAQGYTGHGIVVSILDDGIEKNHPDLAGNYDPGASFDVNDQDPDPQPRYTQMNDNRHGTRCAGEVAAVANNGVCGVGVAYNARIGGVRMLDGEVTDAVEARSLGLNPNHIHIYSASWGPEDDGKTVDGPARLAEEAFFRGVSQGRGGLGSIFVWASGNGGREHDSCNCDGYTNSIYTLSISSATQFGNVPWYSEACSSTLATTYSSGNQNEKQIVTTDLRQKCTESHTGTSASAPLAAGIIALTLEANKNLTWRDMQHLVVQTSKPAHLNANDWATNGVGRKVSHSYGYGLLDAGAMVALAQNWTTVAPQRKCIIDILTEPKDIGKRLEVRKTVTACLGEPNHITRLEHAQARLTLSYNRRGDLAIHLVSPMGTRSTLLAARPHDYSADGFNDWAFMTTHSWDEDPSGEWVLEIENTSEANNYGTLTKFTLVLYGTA

In the case of `CC(=O)NCC1CCN(Cc2cc(Oc3cnc(N4CCN(C(C)CCC(=O)O)CC4)nc3)nc(-c3cc(Cl)cc(Cl)c3)c2)CC1` (stereo not drawn) [Example 215, 4-(4-(5-((4-((4-(acetamidomethyl)piperidin-1-yl)methyl)-6-(3,5-dichlorophenyl)pyridin-2-yl)oxy)pyrimidin-2-yl)piperazin-1-yl)pentanoic acid], in experiment [1], the IC50 was 0.398 nM. Moreover, in experiment [2], the EC50 is 10 nM.
With `CC(=O)NCC1CCN(Cc2cc(Oc3cnc(N4CCN(C5CC(C(=O)O)C5)CC4)nc3)nc(-c3cc(Cl)cc(Cl)c3)c2)CC1` (stereo not drawn) [Example 216, 3-(4-(5-((4-((4-(acetamidomethyl)piperidin-1-yl)methyl)-6-(3,5-dichlorophenyl)pyridin-2-yl)oxy)pyrimidin-2-yl)piperazin-1-yl)cyclobutanecarboxylic acid], in experiment [1], the “furin enzyme pIC50” value is 10.2. Also, in experiment [2], the EC50 was 15.8 nM.
For `COC(=O)NCC1CCN(Cc2cc(Oc3ccc(N4CCN(CCCS(C)(=O)=O)CC4)nc3)nc(-c3cc(Cl)cc(Cl)c3)c2)CC1` [Example 217, methyl ((1-((2-(3,5-dichlorophenyl)-6-((6-(4-(3-(methylsulfonyl)propyl)piperazin-1-yl)pyridin-3-yl)oxy)pyridin-4-yl)methyl)piperidin-4-yl)methyl)carbamate] the same measures were 9.8 and 5.01 nM.
`CC(=O)NCC1CCN(Cc2cc(Oc3ccc(N4CCN(CCC(C)S(C)(=O)=O)CC4)nc3)nc(-c3cc(Cl)cc(Cl)c3)c2)CC1` (stereo not drawn) [Example 218, N-((1-((2-(3,5-dichlorophenyl)-6-((6-(4-(3-(methylsulfonyl)butyl)piperazin-1-yl)pyridin-3-yl)oxy)pyridin-4-yl)methyl)piperidin-4-yl)methyl)acetamide]: in experiment [1], the “furin enzyme pIC50” value was determined as 10.1. Moreover, the EC50 in experiment [2] is 2 nM.
`CNC(=O)NCC1CCN(Cc2cc(Oc3ccc(N4CCN(CCC(C)S(C)(=O)=O)CC4)nc3)nc(-c3cc(Cl)cc(Cl)c3)c2)CC1` (stereo not drawn) [Example 219, 1-((1-((2-(3,5-dichlorophenyl)-6-((6-(4-(3-(methylsulfonyl)butyl)piperazin-1-yl)pyridin-3-yl)oxy)pyridin-4-yl)methyl)piperidin-4-yl)methyl)-3-methylurea]: the “furin enzyme pIC50” value in experiment [1] was determined as 9.8. Besides, the EC50 in experiment [2] was 0.398 nM.
`CNC(=O)NCC1CCN(Cc2cc(Oc3cnc(N4CCN(CCC(C)S(C)(=O)=O)CC4)nc3)nc(-c3cc(Cl)cc(Cl)c3)c2)CC1` (stereo not drawn) [Example 220, 1-((1-((2-(3,5-dichlorophenyl)-6-((2-(4-(3-(methylsulfonyl)butyl)piperazin-1-yl)pyrimidin-5-yl)oxy)pyridin-4-yl)methyl)piperidin-4-yl)methyl)-3-methylurea]: the IC50 in experiment [1] was 0.0631 nM. The EC50 in experiment [2] is 2.51 nM.
Regarding `CNC(=O)NCC1CCN(Cc2cc(Oc3cnc(N4CCN(C5CC(C(=O)O)C5)CC4)nc3)nc(-c3cc(Cl)cc(Cl)c3)c2)CC1` (stereo not drawn) [Example 221, 3-(4-(5-((6-(3,5-dichlorophenyl)-4-((4-((3-methylureido)methyl)piperidin-1-yl)methyl)pyridin-2-yl)oxy)pyrimidin-2-yl)piperazin-1-yl)cyclobutanecarboxylic acid], the “furin enzyme pIC50” value in experiment [1] was determined as 10.4. For the same compound, the EC50 in experiment [2] was 5.01 nM.
For `COC(=O)NCC1CCN(Cc2cc(Oc3cnc(N4CCN(C(C)CCC(=O)O)CC4)nc3)nc(-c3cc(Cl)cc(Cl)c3)c2)CC1` (stereo not drawn) [Example 222, 4-(4-(5-((6-(3,5-dichlorophenyl)-4-((4-(((methoxycarbonyl)amino)methyl)piperidin-1-yl)methyl)pyridin-2-yl)oxy)pyrimidin-2-yl)piperazin-1-yl)pentanoic acid] the same measures were 10.2 and 25.1 nM.
On the same counts, the results for `COC(=O)NCC1CCN(Cc2cc(Oc3cnc(N4CCN(CCCS(C)(=O)=O)CC4)nc3)nc(-c3cc(Cl)cc(Cl)c3)c2)CC1` [Example 223, methyl ((1-((2-(3,5-dichlorophenyl)-6-((2-(4-(3-(methylsulfonyl)propyl)piperazin-1-yl)pyrimidin-5-yl)oxy)pyridin-4-yl)methyl)piperidin-4-yl)methyl)carbamate] are 9.8 and 5.01 nM.
Consider `CN1CCN(c2ncc(Oc3cc(CN4CC[C@@H]5[C@H](CC4)[C@H]5CC(=O)O)cc(-c4cc(Cl)cc(Cl)c4)n3)cn2)CC1` [Example 224, 2-((1R,7S,8r)-4-((2-(3,5-dichlorophenyl)-6-((2-(4-methylpiperazin-1-yl)pyrimidin-5-yl)oxy)pyridin-4-yl)methyl)-4-azabicyclo[5.1.0]octan-8-yl)acetic acid], for which the “furin enzyme pIC50” value in experiment [1] worked out at 8.7. Moreover, the EC50 in experiment [2] is 7.94 nM.
For `CN1CCN(c2ncc(Oc3cc(CN4CCC(OC(C)(C)C(=O)O)CC4)cc(-c4cc(Cl)cc(Cl)c4)n3)cn2)CC1` [Example 225, 2-((1-((2-(3,5-dichlorophenyl)-6-((2-(4-methylpiperazin-1-yl)pyrimidin-5-yl)oxy)pyridin-4-yl)methyl)piperidin-4-yl)oxy)-2-methylpropanoic acid] the same measures were 8.5 and 10 nM.
As for `CN1CCN(c2ncc(Oc3cc(CN4CCC(CC(=O)O)CC4)cc(-c4cc(Cl)cc(Cl)c4)n3)cn2)CC(O)C1` (stereo not drawn) [Example 226, 2-(1-((2-(3,5-dichlorophenyl)-6-((2-(6-hydroxy-4-methyl-1,4-diazepan-1-yl)pyrimidin-5-yl)oxy)pyridin-4-yl)methyl)piperidin-4-yl)acetic acid], in experiment [1], the IC50 is 2.51 nM. Further, the EC50 in experiment [2] is 15.8 nM.
For the compound `CN(C)C1CCN(c2ncc(Oc3cc(CN4CCC(CC(=O)O)CC4)cc(-c4cc(Cl)cc(Cl)c4)n3)cn2)CC1` [Example 227, 2-(1-((2-(3,5-dichlorophenyl)-6-((2-(4-(dimethylamino)piperidin-1-yl)pyrimidin-5-yl)oxy)pyridin-4-yl)methyl)piperidin-4-yl)acetic acid], the “furin enzyme pIC50” value in experiment [1] turned out to be 8.7. In addition, the EC50 in experiment [2] was 39.8 nM.
On the same counts, the results for `CN1C2CC1CN(c1ncc(Oc3cc(CN4CCC(CC(=O)O)CC4)cc(-c4cc(Cl)cc(Cl)c4)n3)cn1)C2` [Example 228, 2-(1-((2-(3,5-dichlorophenyl)-6-((2-(6-methyl-3,6-diazabicyclo[3.1.1]heptan-3-yl)pyrimidin-5-yl)oxy)pyridin-4-yl)methyl)piperidin-4-yl)acetic acid] are 8.6 and 39.8 nM.
With `O=C(O)CC1CCN(Cc2cc(Oc3cnc(N4CCN(CC5(O)CC5)CC4)nc3)nc(-c3cc(Cl)cc(Cl)c3)c2)CC1` [Example 229, 2-(1-((2-(3,5-dichlorophenyl)-6-((2-(4-((1-hydroxycyclopropyl)methyl)piperazin-1-yl)pyrimidin-5-yl)oxy)pyridin-4-yl)methyl)piperidin-4-yl)acetic acid], the “furin enzyme pIC50” value in experiment [1] stood at 8.6. For the same compound, the EC50 in experiment [2] is 20 nM.
Take `CCN1CCCN(c2ncc(Oc3cc(CN4CCC(CC(=O)O)CC4)cc(-c4cc(Cl)cc(Cl)c4)n3)cn2)CC1` [Example 230, 2-(1-((2-(3,5-dichlorophenyl)-6-((2-(4-ethyl-1,4-diazepan-1-yl)pyrimidin-5-yl)oxy)pyridin-4-yl)methyl)piperidin-4-yl)acetic acid]: the “furin enzyme pIC50” value in experiment [1] was 8.6. In experiment [2], the EC50 was 10 nM.
For the compound `CN1C[C@@H]2C[C@H]1CN2c1ncc(Oc2cc(CN3CCC(CC(=O)O)CC3)cc(-c3cc(Cl)cc(Cl)c3)n2)cn1` [Example 231, 2-(1-((2-(3,5-dichlorophenyl)-6-((2-((1S,4S)-5-methyl-2,5-diazabicyclo[2.2.1]heptan-2-yl)pyrimidin-5-yl)oxy)pyridin-4-yl)methyl)piperidin-4-yl)acetic acid], the “furin enzyme pIC50” value in experiment [1] turned out to be 8.5. In experiment [2], the EC50 is 10 nM.
On the same counts, the results for `CCN1C[C@@H]2C[C@H]1CN2c1ncc(Oc2cc(CN3CCC(CC(=O)O)CC3)cc(-c3cc(Cl)cc(Cl)c3)n2)cn1` [Example 232, 2-(1-((2-(3,5-dichlorophenyl)-6-((2-((1S,4S)-5-ethyl-2,5-diazabicyclo[2.2.1]heptan-2-yl)pyrimidin-5-yl)oxy)pyridin-4-yl)methyl)piperidin-4-yl)acetic acid] are 8.9 and 50.1 nM.
For `O=C(O)CC1CCN(Cc2cc(Oc3cnc(N4CCN(C5CC5)CC4)nc3)nc(-c3cc(Cl)cc(Cl)c3)c2)CC1` [Example 233, 2-(1-((2-((2-(4-cyclopropylpiperazin-1-yl)pyrimidin-5-yl)oxy)-6-(3,5-dichlorophenyl)pyridin-4-yl)methyl)piperidin-4-yl)acetic acid] the same measures were 8.2 and 100 nM.
For `CCN1CCN(c2ncc(Oc3cc(CN4CCC(CC(=O)O)CC4)cc(-c4cc(Cl)cc(Cl)c4)n3)cn2)CC1` [Example 234, 2-(1-((2-(3,5-Dichlorophenyl)-6-((2-(4-ethylpiperazin-1-yl)pyrimidin-5-yl)oxy)pyridin-4-yl)methyl)piperidin-4-yl)acetic acid] the same measures were 10.7 and 10 nM.
In the case of `CC(C)N1CCN(c2ncc(Oc3cc(CN4CCC(CC(=O)O)CC4)cc(-c4cc(Cl)cc(Cl)c4)n3)cn2)CC1` [Example 235, 2-(1-((2-(3,5-Dichlorophenyl)-6-((2-(4-isopropylpiperazin-1-yl)pyrimidin-5-yl)oxy)pyridin-4-yl)methyl)piperidin-4-yl)acetic acid], the “furin enzyme pIC50” value in experiment [1] is 9.2. Besides, the EC50 in experiment [2] is 15.8 nM.
